From PubChem BioAssay (NCI)
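Results reflect a 48-hour exposure of cells in 96-well plates to compound at five concentrations. Definition used: TGI = concentration required for complete inhibition of growth.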

Legend:
Assay in all cases: NCI tumour cell line growth inhibition, 48 h
HOP-18 NSCLC = tested on: HOP-18 NSCLC
LXFL 529 NSCLC = tested on: LXFL 529 NSCLC
M19-MEL melanoma = tested on: M19-MEL melanoma
T-47D breast = tested on: T-47D breast
SNB-78 CNS = tested on: SNB-78 CNS
KM20L2 colon = tested on: KM20L2 colon
DMS 114 small cell lung = tested on: DMS 114 small cell lung
P388 leukemia = tested on: P388 leukemia
XF 498 CNS = tested on: XF 498 CNS
SN12K1 renal = tested on: SN12K1 renal

Row | Compound | TGI (HOP-18 NSCLC) [µM] | TGI (LXFL 529 NSCLC) [µM] | TGI (M19-MEL melanoma) [µM] | TGI (T-47D breast) [µM] | TGI (KM20L2 colon) [µM] | TGI (DMS 114 small cell lung) [µM] | further results
1 | Nc1ccccc1N | > 100 | > 100 | > 100 | – | – | – | –
2 | O=C1c2cc(Br)ccc2-c2ccc3c4ccc5c6c(ccc(c7ccc1c2c73)c64)C(=O)c1cc(Br)ccc1-5 | – | – | – | > 100 | – | – | –
3 | O=C(O)C(Cc1cc(I)c(O)c(I)c1)C1CCCCC1 (configuration not stated) | – | – | – | > 100 | – | – | –
4 | CCOC(=O)CC1=N/C(=N/C(=N)N[N+](=O)[O-])SC1 | > 100 | > 100 | > 100 | – | > 100 | – | TGI (SNB-78 CNS): > 100 µM
5 | NCCCCCC(CCN)SCC1OC(n2cnc3c(N)ncnc32)C(O)C1O (configuration not stated) | – | – | > 1500 | – | > 1500 | > 1500 | TGI (P388 leukemia): > 1.5 mM; TGI (XF 498 CNS): > 15 µM; TGI (SNB-78 CNS): > 1500 µM; TGI (SN12K1 renal): > 1.5 mM
6 | N=c1sc2ccccc2n1CCS (tested in a mixture with another compound) | – | – | – | > 100 | – | – | –
7 | NC(Cc1ccc(CP(=O)(O)O)cc1)C(=O)O (configuration not stated) | – | – | – | > 100 | – | – | –
8 | COc1ccc(-c2cc(N3CCN(c4ccc(Cl)cc4)CC3)c(C#N)c(=O)o2)cc1 | 44.3 | 70.5 | – | – | > 100 | 25.6 | TGI (XF 498 CNS): 7.76 µM; TGI (SNB-78 CNS): 34.2 µM
9 | C/C(=N/NC(=O)c1ccncc1)C(F)(F)F | – | – | – | > 100 | – | – | –
10 | O=C(O)c1ccccc1CN1CCCC(C(=O)O)C1 (configuration not stated) | – | – | – | > 100 | – | – | –
11 | CN1C2CCC1/C(=C/c1cccc3c1OCO3)C(=O)/C2=C\c1cccc2c1OCO2 | – | > 100 | > 100 | – | > 100 | > 100 | TGI (XF 498 CNS): > 100 µM
12 | Fc1ccc(Nc2nc(Cl)c3[nH]cnc3n2)cc1Cl | – | – | – | > 100 | – | – | –
13 | C=C=C[P+](c1ccccc1)(c1ccccc1)c1ccccc1 | > 100 | 20.8 | 91.9 | – | – | 29.9 | TGI (SNB-78 CNS): 86 µM
14 | CC(=O)CCC#Cc1ccccc1C(=O)C(C)=[N+]=[N-] | > 100 | – | – | – | > 100 | 42 | TGI (XF 498 CNS): 89.3 µM
